In data set [1] the test system is Staphylococcus aureus. As to the kind of experiment: Antibacterial activity against methicillin-resistant Staphylococcus aureus clinical isolate 10 incubated for 16 to 18 hrs by CLSI-based microbroth dilution method. The format is functional. The note with it: time 16-18 hrs. Background: Dilution methods test growth across graded concentrations, often in twofold steps.

Data set [2] relates to Staphylococcus aureus. Nature of the data set: Antibacterial activity against methicillin-resistant Staphylococcus aureus clinical isolate 4 incubated for 16 to 18 hrs by CLSI-based microbroth dilution method. It is filed as functional. The note with it: time 16-18 hrs.
Data set [3] in a line: Hemolytic activity in sheep erythrocytes incubated for 1 hr by absorbance based analysis. It is filed as toxicity, cell-based, Ovis aries, Erythrocyte.
Data set [4] deals with Staphylococcus aureus. Nature of the data set: Antibacterial activity against methicillin-resistant Staphylococcus aureus clinical isolate 9 incubated for 16 to 18 hrs by CLSI-based microbroth dilution method. It is filed as functional. The note with it: time 16-18 hrs.
Data set [5] has as its system Staphylococcus aureus. As to the kind of experiment: Antibacterial activity against methicillin-resistant Staphylococcus aureus clinical isolate 6 incubated for 16 to 18 hrs by CLSI-based microbroth dilution method. The note with it: time 16-18 hrs. The format is functional.
For data set [6], the system named is Staphylococcus aureus. As to the kind of experiment: Antibacterial activity against Staphylococcus aureus ATCC 29213 incubated for 16 to 18 hrs by CLSI-based microbroth dilution method. The note with it: time 16-18 hrs. It is filed as functional.
The test system of data set [7] is Staphylococcus aureus. As to the kind of experiment: Antibacterial activity against methicillin-resistant Staphylococcus aureus clinical isolate 5 incubated for 16 to 18 hrs by CLSI-based microbroth dilution method. The format is functional. The note with it: time 16-18 hrs.
Data set [8] concerns Staphylococcus aureus. As to the kind of experiment: Antibacterial activity against methicillin-resistant Staphylococcus aureus clinical isolate 2 incubated for 16 to 18 hrs by CLSI-based microbroth dilution method. It is filed as functional. The note with it: time 16-18 hrs.
Data set [9] concerns Staphylococcus aureus. Nature of the data set: Antibacterial activity against methicillin-resistant Staphylococcus aureus clinical isolate 3 incubated for 16 to 18 hrs by CLSI-based microbroth dilution method. It is filed as functional. The following applies: time 16-18 hrs.
The subject of data set [10] is Staphylococcus aureus. As to the kind of experiment: Antibacterial activity against methicillin-resistant Staphylococcus aureus clinical isolate 8 incubated for 16 to 18 hrs by CLSI-based microbroth dilution method. It is filed as functional. The following applies: time 16-18 hrs.
Data set [11] relates to Staphylococcus aureus. Nature of the data set: Antibacterial activity against methicillin-resistant Staphylococcus aureus clinical isolate 1 incubated for 16 to 18 hrs by CLSI-based microbroth dilution method. It is filed as functional. The note with it: time 16-18 hrs.
Data set [12] relates to Staphylococcus aureus. As to the kind of experiment: Antibacterial activity against methicillin-resistant Staphylococcus aureus clinical isolate 7 incubated for 16 to 18 hrs by CLSI-based microbroth dilution method. The note with it: time 16-18 hrs. It is filed as functional.

The structures appear in SMILES notation. ≈ marks a conversion by molar mass, not a printed value.

This note sets out measurements from ChEMBL document CHEMBL5316298, “Discovery of Amphiphilic Xanthohumol Derivatives as Membrane-Targeting Antimicrobials against Methicillin-Resistant Staphylococcus aureus” (J Med Chem, 2023).

A word on the MIC: it is the least concentration at which growth counts as inhibited. Lower therefore signals a more susceptible organism. As usually defined, the HC50 is the concentration that lyses half of the red blood cells. A high value points to less damage to red cells.

`CCCCN(CCCC)C(=O)C[N+](C)(C)CCCOc1ccc(/C=C/C(=O)c2c(OC)cc3c(c2O)C=CC(C)(C)O3)cc1.[Br-]`: the MIC against Staphylococcus aureus [1] is 2 µg/mL; against Staphylococcus aureus [2], 2 µg/mL; against Staphylococcus aureus [4], 2 µg/mL; with Staphylococcus aureus [5], 1 µg/mL; against Staphylococcus aureus [6], 2 µg/mL; with Staphylococcus aureus [7] it was 1 µg/mL. The MIC in the data set with Staphylococcus aureus [8] is 2 µg/mL; against Staphylococcus aureus [9], 2 µg/mL; in the data set on Staphylococcus aureus [10], 1 µg/mL; against Staphylococcus aureus [11], 2 µg/mL; in the data set on Staphylococcus aureus [12] it was 1 µg/mL. In addition, the HC50 at 1 h in [3] was found to be 434 µg/mL.

Turning to `COc1cc2c(c(O)c1C(=O)/C=C/c1ccc(OCCCC[N+](C)(C)CC(=O)N3CCOCC3)cc1)C=CC(C)(C)O2.[Br-]`, the minimum inhibitory concentration (MIC) was 16 µg/mL in the data set with Staphylococcus aureus [1]; 8 µg/mL with Staphylococcus aureus [2]; 8 µg/mL with Staphylococcus aureus [4]; 4 µg/mL against Staphylococcus aureus [5]; 8 µg/mL against Staphylococcus aureus [6]; 4 µg/mL against Staphylococcus aureus [7]. Besides, the MIC with Staphylococcus aureus [8] is 8 µg/mL; with Staphylococcus aureus [9], 4 µg/mL; against Staphylococcus aureus [10], 4 µg/mL; with Staphylococcus aureus [11], 8 µg/mL; with Staphylococcus aureus [12] it was 4 µg/mL. Also, the concentration for 50% haemolysis (HC50) at 1 h in data set [3] is over 1280 µg/mL.

As for `CCCNC(=O)C[N+](C)(C)CCCCCOc1ccc(/C=C/C(=O)c2c(OC)cc3c(c2O)C=CC(C)(C)O3)cc1.[Br-]`, the minimum inhibitory concentration (MIC) with Staphylococcus aureus [1] came to 2 µg/mL; in the data set with Staphylococcus aureus [2], 2 µg/mL; with Staphylococcus aureus [4], 8 µg/mL; in the data set with Staphylococcus aureus [5], 1 µg/mL; against Staphylococcus aureus [6] it was 4 µg/mL; against Staphylococcus aureus [7], 1 µg/mL. Moreover, the MIC in the data set on Staphylococcus aureus [8] came out at 8 µg/mL; against Staphylococcus aureus [9], 2 µg/mL; in the data set on Staphylococcus aureus [10] it was 2 µg/mL; in the data set with Staphylococcus aureus [11], 2 µg/mL; against Staphylococcus aureus [12], 2 µg/mL. The same compound showed a 50% haemolytic concentration (HC50) at 1 h in data set [3] of 974 µg/mL.

Regarding `CCCNC(=O)C[N+](C)(C)CCCOc1ccc(/C=C/C(=O)c2c(OC)cc3c(c2O)C=CC(C)(C)O3)cc1.[Br-]`, the MIC with Staphylococcus aureus [1] came out at 4 µg/mL; against Staphylococcus aureus [2], 4 µg/mL; against Staphylococcus aureus [4] it was 2 µg/mL; with Staphylococcus aureus [5], 2 µg/mL; against Staphylococcus aureus [6] it was 4 µg/mL; against Staphylococcus aureus [7] it was 2 µg/mL. The minimal inhibitory concentration (MIC) against Staphylococcus aureus [8] came to 2 µg/mL; against Staphylococcus aureus [9] it was 2 µg/mL; against Staphylococcus aureus [10] it was 2 µg/mL; in the data set on Staphylococcus aureus [11], 4 µg/mL; in the data set with Staphylococcus aureus [12] it was 2 µg/mL. Moreover, the HC50 at 1 h in data set [3] came out at 210 µg/mL.

As for `CCCCN(CCCC)C(=O)C[N+](C)(C)CCCCCOc1ccc(/C=C/C(=O)c2c(OC)cc3c(c2O)C=CC(C)(C)O3)cc1.[Br-]`, the MIC against Staphylococcus aureus [1] came to 2 µg/mL; against Staphylococcus aureus [2], 8 µg/mL; against Staphylococcus aureus [4], 8 µg/mL; with Staphylococcus aureus [5], 1 µg/mL; against Staphylococcus aureus [6], 2 µg/mL; against Staphylococcus aureus [7] it was 2 µg/mL. The minimal inhibitory concentration (MIC) against Staphylococcus aureus [8] worked out at 2 µg/mL; in the data set on Staphylococcus aureus [9], 4 µg/mL; with Staphylococcus aureus [10], 4 µg/mL; against Staphylococcus aureus [11] it was 2 µg/mL; against Staphylococcus aureus [12], 2 µg/mL. Also, the HC50 at 1 h in data set [3] came to 409 µg/mL.

As for `CCCCCCNC(=O)C[N+](C)(C)CCCOc1ccc(/C=C/C(=O)c2c(OC)cc3c(c2O)C=CC(C)(C)O3)cc1.[Br-]`, the minimum inhibitory concentration (MIC) worked out at 1 µg/mL in the data set with Staphylococcus aureus [1]; 2 µg/mL in the data set with Staphylococcus aureus [2]; 1 µg/mL against Staphylococcus aureus [4]; 4 µg/mL in the data set with Staphylococcus aureus [5]; 2 µg/mL with Staphylococcus aureus [6]; 2 µg/mL against Staphylococcus aureus [7]. Also, the MIC in the data set on Staphylococcus aureus [8] amounted to 2 µg/mL; against Staphylococcus aureus [9], 2 µg/mL; against Staphylococcus aureus [10], 2 µg/mL; in the data set with Staphylococcus aureus [11], 2 µg/mL; in the data set with Staphylococcus aureus [12] it was 4 µg/mL. In data set [3], this compound gave a concentration for 50% haemolysis (HC50) at 1 h of 97.9 µg/mL.

Take `COc1cc2c(c(O)c1C(=O)/C=C/c1ccc(OCCC[N+](C)(C)CC(=O)N(C(C)C)C(C)C)cc1)C=CC(C)(C)O2.[Br-]`: the MIC in the data set with Staphylococcus aureus [1] came out at 4 µg/mL; in the data set on Staphylococcus aureus [2], 2 µg/mL; with Staphylococcus aureus [4], 2 µg/mL; with Staphylococcus aureus [5], 1 µg/mL; in the data set with Staphylococcus aureus [6] it was 4 µg/mL; in the data set on Staphylococcus aureus [7], 1 µg/mL. The MIC came out at 2 µg/mL against Staphylococcus aureus [8]; 1 µg/mL in the data set on Staphylococcus aureus [9]; 2 µg/mL against Staphylococcus aureus [10]; 2 µg/mL against Staphylococcus aureus [11]; 2 µg/mL against Staphylococcus aureus [12]. In addition, the HC50 at 1 h in data set [3] came out at 158 µg/mL.

Take `COc1cc2c(c(O)c1C(=O)/C=C/c1ccc(OCCCC[N+](C)(C)CC(=O)N(CC(C)C)CC(C)C)cc1)C=CC(C)(C)O2.[Br-]`: the minimal inhibitory concentration (MIC) is 4 µg/mL against Staphylococcus aureus [1]; 4 µg/mL with Staphylococcus aureus [2]; 2 µg/mL against Staphylococcus aureus [4]; 1 µg/mL against Staphylococcus aureus [5]; 4 µg/mL against Staphylococcus aureus [6]; 1 µg/mL with Staphylococcus aureus [7]. Moreover, the MIC in the data set with Staphylococcus aureus [8] was found to be 2 µg/mL; against Staphylococcus aureus [9], 1 µg/mL; against Staphylococcus aureus [10], 2 µg/mL; in the data set on Staphylococcus aureus [11] it was 2 µg/mL; against Staphylococcus aureus [12], 1 µg/mL. Also, the HC50 at 1 h in data set [3] is 333 µg/mL.

For `CCCCCNC(=O)C[N+](C)(C)CCCCOc1ccc(/C=C/C(=O)c2c(OC)cc3c(c2O)C=CC(C)(C)O3)cc1.[Br-]`, the MIC in the data set on Staphylococcus aureus [1] came out at 4 µg/mL; against Staphylococcus aureus [2], 8 µg/mL; in the data set on Staphylococcus aureus [4], 4 µg/mL; against Staphylococcus aureus [5], 2 µg/mL; against Staphylococcus aureus [6], 4 µg/mL; with Staphylococcus aureus [7] it was 4 µg/mL. Also, the minimal inhibitory concentration (MIC) with Staphylococcus aureus [8], in the data set on Staphylococcus aureus [9], with Staphylococcus aureus [10], against Staphylococcus aureus [11] and in the data set on Staphylococcus aureus [12] was 4 µg/mL in each case. In [3], the 50% haemolytic concentration (HC50) at 1 h was found to be 83.4 µg/mL.

Turning to `CCCCCNC(=O)C[N+](C)(C)CCCOc1ccc(/C=C/C(=O)c2c(OC)cc3c(c2O)C=CC(C)(C)O3)cc1.[Br-]`, the minimum inhibitory concentration (MIC) turned out to be 4 µg/mL with Staphylococcus aureus [1]; 4 µg/mL with Staphylococcus aureus [2]; 4 µg/mL in the data set with Staphylococcus aureus [4]; 4 µg/mL against Staphylococcus aureus [5]; 2 µg/mL in the data set on Staphylococcus aureus [6]; 2 µg/mL in the data set on Staphylococcus aureus [7]. Besides, the minimum inhibitory concentration (MIC) against Staphylococcus aureus [8] worked out at 4 µg/mL; in the data set on Staphylococcus aureus [9], 2 µg/mL; against Staphylococcus aureus [10] it was 4 µg/mL; against Staphylococcus aureus [11] it was 2 µg/mL; against Staphylococcus aureus [12] it was 4 µg/mL. This compound also came in with an HC50 at 1 h in [3] of 169 µg/mL.

As for `COc1cc2c(c(O)c1C(=O)/C=C/c1ccc(OCCC[N+](C)(C)CC(=O)N3CCOCC3)cc1)C=CC(C)(C)O2.[Br-]`, the minimal inhibitory concentration (MIC) in the data set on Staphylococcus aureus [1] worked out at 8 µg/mL; in the data set on Staphylococcus aureus [2], 16 µg/mL; against Staphylococcus aureus [4], 8 µg/mL; in the data set with Staphylococcus aureus [5], 8 µg/mL; against Staphylococcus aureus [6] it was 8 µg/mL; against Staphylococcus aureus [7], 8 µg/mL. Further, the MIC amounted to 8 µg/mL against Staphylococcus aureus [8]; 8 µg/mL in the data set on Staphylococcus aureus [9]; 8 µg/mL against Staphylococcus aureus [10]; 8 µg/mL in the data set with Staphylococcus aureus [11]; 4 µg/mL in the data set on Staphylococcus aureus [12]. The same compound gave an HC50 at 1 h in data set [3] of over 1280 µg/mL.

Consider `COc1cc2c(c(O)c1C(=O)/C=C/c1ccc(O)cc1)C=CC(C)(C)O2` [XANTHOHUMOL C], for which the minimum inhibitory concentration (MIC) against Staphylococcus aureus [1] was 4 µg/mL (≈ 11.4 µM); with Staphylococcus aureus [2] it was 4 µg/mL (≈ 11.4 µM); with Staphylococcus aureus [4], 8 µg/mL (≈ 22.7 µM); in the data set with Staphylococcus aureus [5], 8 µg/mL (≈ 22.7 µM); in the data set on Staphylococcus aureus [6], 4 µg/mL (≈ 11.4 µM); in the data set on Staphylococcus aureus [7] it was 4 µg/mL (≈ 11.4 µM). In addition, the MIC in the data set on Staphylococcus aureus [8], against Staphylococcus aureus [9], with Staphylococcus aureus [10], with Staphylococcus aureus [11] and against Staphylococcus aureus [12] was 4 µg/mL (≈ 11.4 µM) in each case. This compound displayed an HC50 at 1 h in data set [3] of 222 µg/mL.
